Values of other authors, collected in US20100055067A1, “PERFLUOROCARBON CONJUGATE AS A BLOOD SUBSTITUTE” (SNU R&DB Foundation, priority 2008, published 2010).
Where two headings read alike, the source gives them in different places.

How the values were obtained:
[1] = relatively low boiling point

## FC(F)(F)C(F)(F)C(F)(F)C(F)(F)N(C(F)(F)C(F)(F)C(F)(F)C(F)(F)F)C(F)(F)C(F)(F)C(F)(F)C(F)(F)F [FC-43, perfluorotributylamine]
Administered to test animals, liver and spleen, resulting in an adverse effect to the animals
  accumulation in the internal organs: accumulate in the internal organs such as liver and spleen for a long period of time

## FC1(F)OC(F)(F)C(F)(F)C1(F)F [FX-80, perfluorotetrahydrofuran]
[1]
  damage to the lung: can cause substantial damage to the lung

## FC(OC(F)(F)C(F)(OC(F)(F)C(F)(OC(F)(F)C(F)(OC(F)(F)C(F)(F)C(F)(F)F)C(F)(F)F)C(F)(F)F)C(F)(F)F)C(F)(F)F (stereo not drawn) [Freon E-4, 2-monohydrononacosafluoro-3,6,9,1 2-tetraoxa-5,8,11-trimethylpentadecan]
In vivo
  accumulation in the internal organs: accumulate in the internal organs such as liver and spleen for a long period of time
